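Five concentrations, 48 hours, 96-well plates. At the GI50, growth is halved.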 Activity calls are given as the source filed them. No stated cut-off is given here; in the data, active = GI50 up to about 1.1 µM and inactive = higher.
What was measured:
Test in all cases: inhibition of tumour cell growth, NCI panel, 48 h
CCRF-CEM = system: CCRF-CEM
KM-20L2 = system: KM-20L2
U-251 = system: U-251
LXFL 529 = system: LXFL 529
M14 = system: M14
HT-29 = system: HT-29
HOP-18 = system: HOP-18
NCI/ADR-RES = system: NCI/ADR-RES
T47D = system: T47D
DLD-1 = system: DLD-1
MOLT-4 = system: MOLT-4
NCI-H522 = system: NCI-H522
HCC 2998 = system: HCC 2998
SF-295 = system: SF-295
TK-10 = system: TK-10
UACC-257 = system: UACC-257
MDA-MB-435 = system: MDA-MB-435
OVCAR-4 = system: OVCAR-4
PC-3 = system: PC-3
HOP-92 = system: HOP-92
SF-268 = system: SF-268
SN12C = system: SN12C
A498 = system: A498
HL-60 = system: HL-60
DMS-273 = system: DMS-273
KM12 = system: KM12
A549 = system: A549
SNB-75 = system: SNB-75
SR = system: SR
Malme-3M = system: Malme-3M
RXF 393 = system: RXF 393
K562 = system: K562
NCI-H226 = system: NCI-H226
UACC-62 = system: UACC-62
ACHN = system: ACHN
BT-549 = system: BT-549
MDA-N = system: MDA-N
XF498 = system: XF498
SW-620 = system: SW-620
SK-MEL-28 = system: SK-MEL-28
SK-OV-3 = system: SK-OV-3
EKVX = system: EKVX
HOP-62 = system: HOP-62
OVCAR-5 = system: OVCAR-5
RPMI-8226 = system: RPMI-8226
OVCAR-8 = system: OVCAR-8
SNB-78 = system: SNB-78
MCF7 = system: MCF7
SF-539 = system: SF-539
HCT-15 = system: HCT-15
SK-MEL-5 = system: SK-MEL-5
LOX IMVI = system: LOX IMVI
Hs-578T = system: Hs-578T
SK-MEL-2 = system: SK-MEL-2
M19-MEL = system: M19-MEL
IGROV-1 = system: IGROV-1
NCI-H23 = system: NCI-H23
DMS-114 = system: DMS-114
UO-31 = system: UO-31
HCT-116 = system: HCT-116
CAKI-1 = system: CAKI-1
MDA-MB-231 = system: MDA-MB-231
COLO 205 = system: COLO 205
786-0 = system: 786-0
DU-145 = system: DU-145
SNB-19 = system: SNB-19
RXF 631 = system: RXF 631
NCI-H460 = system: NCI-H460
OVCAR-3 = system: OVCAR-3

Q: Which GI50 (CCRF-CEM) does the source give for `CSc1nc(NC2OC(COC(C)=O)C(OC(C)=O)C(OC(C)=O)C2OC(C)=O)c(/N=C\C=N/c2c(NC3OC(COC(C)=O)C(OC(C)=O)C(OC(C)=O)C3OC(C)=O)nc(SC)n(C)c2=O)c(=O)n1C` (centres undefined) here?
A: The GI50 was > 100 µM (inactive).

Q: And the GI50 (KM-20L2)?
A: Its GI50 is > 100 µM (inactive).

Q: And the GI50 (U-251)?
A: Its GI50 is 41.2 µM (inactive).

Q: What about the GI50 (LXFL 529) of the same compound?
A: Its GI50 is > 100 µM (inactive).

Q: And the GI50 (M14)?
A: The GI50 was > 4.65 µM (inactive).

Q: And the GI50 (HT-29)?
A: Its GI50 is > 82.2 µM (inactive).

Q: And the GI50 (HOP-18)?
A: Its GI50 is > 67.1 µM (inactive).

Q: What about the GI50 (NCI/ADR-RES) of the same compound?
A: The GI50 was > 100 µM (inactive).

Q: What about the GI50 (T47D) of the same compound?
A: The GI50 was 96.8 µM (inactive).

Q: What about the GI50 (DLD-1) of the same compound?
A: The GI50 was > 100 µM (inactive).

Q: What about the GI50 (MOLT-4) of the same compound?
A: Its GI50 is > 100 µM (inactive).

Q: And the GI50 (NCI-H522)?
A: The GI50 was > 100 µM (inactive).

Q: What about the GI50 (HCC 2998) of the same compound?
A: The GI50 was > 100 µM (inactive).

Q: What about the GI50 (SF-295) of the same compound?
A: Its GI50 is 33.3 µM (inactive).

Q: What about the GI50 (TK-10) of the same compound?
A: The GI50 was 45.9 µM (inactive).

Q: What about the GI50 (UACC-257) of the same compound?
A: Its GI50 is > 100 µM (inactive).

Q: What about the GI50 (MDA-MB-435) of the same compound?
A: The GI50 was > 100 µM (inactive).

Q: What about the GI50 (OVCAR-4) of the same compound?
A: Its GI50 is > 100 µM (inactive).

Q: And the GI50 (PC-3)?
A: The GI50 was > 100 µM (inactive).

Q: What about the GI50 (HOP-92) of the same compound?
A: Its GI50 is 25.9 µM (inactive).

Q: What about the GI50 (SF-268) of the same compound?
A: Its GI50 is 62.1 µM (inactive).

Q: What about the GI50 (SN12C) of the same compound?
A: The GI50 was > 92.9 µM (inactive).

Q: What about the GI50 (A498) of the same compound?
A: The GI50 was 38.5 µM (inactive).

Q: What about the GI50 (HL-60) of the same compound?
A: Its GI50 is > 100 µM (inactive).

Q: What about the GI50 (DMS-273) of the same compound?
A: The GI50 was > 100 µM (inactive).

Q: And the GI50 (KM12)?
A: The GI50 was > 100 µM (inactive).

Q: What about the GI50 (A549) of the same compound?
A: The GI50 was > 100 µM (inactive).

Q: And the GI50 (SNB-75)?
A: The GI50 was 12.2 µM (inactive).

Q: And the GI50 (SR)?
A: Its GI50 is > 100 µM (inactive).

Q: What about the GI50 (Malme-3M) of the same compound?
A: The GI50 was 81.5 µM (inactive).

Q: And the GI50 (RXF 393)?
A: Its GI50 is 17.9 µM (inactive).

Q: And the GI50 (K562)?
A: Its GI50 is > 100 µM (inactive).

Q: And the GI50 (NCI-H226)?
A: Its GI50 is 54.1 µM (inactive).

Q: What about the GI50 (UACC-62) of the same compound?
A: The GI50 was > 94.8 µM (inactive).

Q: What about the GI50 (ACHN) of the same compound?
A: The GI50 was 83.9 µM (inactive).

Q: And the GI50 (BT-549)?
A: The GI50 was > 65.6 µM (inactive).

Q: And the GI50 (MDA-N)?
A: The GI50 was > 100 µM (inactive).

Q: And the GI50 (XF498)?
A: The GI50 was 15.6 µM (inactive).

Q: What about the GI50 (SW-620) of the same compound?
A: Its GI50 is > 100 µM (inactive).

Q: And the GI50 (SK-MEL-28)?
A: The GI50 was > 100 µM (inactive).

Q: What about the GI50 (SK-OV-3) of the same compound?
A: The GI50 was 36.1 µM (inactive).

Q: What about the GI50 (EKVX) of the same compound?
A: Its GI50 is > 100 µM (inactive).

Q: What about the GI50 (HOP-62) of the same compound?
A: The GI50 was 4.32 µM (inactive).

Q: What about the GI50 (OVCAR-5) of the same compound?
A: Its GI50 is > 100 µM (inactive).

Q: What about the GI50 (RPMI-8226) of the same compound?
A: The GI50 was > 100 µM (inactive).

Q: And the GI50 (OVCAR-8)?
A: The GI50 was 73.8 µM (inactive).

Q: And the GI50 (SNB-78)?
A: The GI50 was 31.7 µM (inactive).

Q: And the GI50 (MCF7)?
A: Its GI50 is > 100 µM (inactive).

Q: And the GI50 (SF-539)?
A: The GI50 was 38 µM (inactive).

Q: What about the GI50 (HCT-15) of the same compound?
A: Its GI50 is > 100 µM.

Q: And the GI50 (SK-MEL-5)?
A: Its GI50 is > 100 µM (inactive).

Q: And the GI50 (LOX IMVI)?
A: Its GI50 is > 95.3 µM (inactive).

Q: What about the GI50 (Hs-578T) of the same compound?
A: Its GI50 is 26.1 µM (inactive).

Q: What about the GI50 (SK-MEL-2) of the same compound?
A: The GI50 was 32.7 µM (inactive).

Q: What about the GI50 (M19-MEL) of the same compound?
A: The GI50 was > 100 µM (inactive).

Q: And the GI50 (IGROV-1)?
A: The GI50 was 65.8 µM (inactive).

Q: What about the GI50 (NCI-H23) of the same compound?
A: The GI50 was > 70 µM (inactive).

Q: And the GI50 (DMS-114)?
A: Its GI50 is > 100 µM (inactive).

Q: And the GI50 (UO-31)?
A: The GI50 was > 100 µM (inactive).

Q: And the GI50 (HCT-116)?
A: The GI50 was > 100 µM (inactive).

Q: What about the GI50 (CAKI-1) of the same compound?
A: The GI50 was > 7.23 µM (inactive).

Q: What about the GI50 (MDA-MB-231) of the same compound?
A: The GI50 was 49.3 µM (inactive).

Q: What about the GI50 (COLO 205) of the same compound?
A: Its GI50 is > 100 µM (inactive).

Q: What about the GI50 (786-0) of the same compound?
A: The GI50 was 34 µM (inactive).

Q: What about the GI50 (DU-145) of the same compound?
A: Its GI50 is > 100 µM (inactive).

Q: And the GI50 (SNB-19)?
A: The GI50 was 38.6 µM (inactive).

Q: What about the GI50 (RXF 631) of the same compound?
A: Its GI50 is 51.8 µM (inactive).

Q: What about the GI50 (NCI-H460) of the same compound?
A: Its GI50 is > 100 µM (inactive).

Q: And the GI50 (OVCAR-3)?
A: Its GI50 is > 15.5 µM (inactive).
